Test results: PubChem BioAssay (NCI)
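Where inhibition never reached the appropriate level, the endpoint shown equals the highest concentration tested. Otherwise, values were interpolated linearly from a five-concentration, 48-hour dose response in 96-well plates. TGI: concentration producing complete growth inhibition.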

Tests used:
Test in all cases: NCI-60 cell line screen, 48 h
PC-3 prostate = system: PC-3 prostate
T-47D breast = system: T-47D breast
MDA-N = system: MDA-N
MDA-MB-435 = system: MDA-MB-435
DMS 273 small cell lung = system: DMS 273 small cell lung
HOP-18 NSCLC = system: HOP-18 NSCLC

O=[N+]([O-])C(=C/c1ccccc1)/C(=C\c1ccccc1)[N+](=O)[O-]
TGI (PC-3 prostate): 44.7 µM | TGI (T-47D breast): 48.2 µM | TGI (MDA-N): 33.1 µM | TGI (MDA-MB-435): 30.3 µM

CCOC(=O)Cc1cc(OC)c(OC)cc1/C(Cl)=C(\CO)c1ccc(OC)c(OC)c1
TGI (DMS 273 small cell lung): > 100 µM | TGI (HOP-18 NSCLC): > 100 µM
